Consider 14 compounds from ChEMBL document CHEMBL1155313, “Inhibitory effect of chalcones and their derivatives from Glycyrrhiza inflata on protein tyrosine phosphatase 1B” (Bioorg Med Chem Lett, 2009).

In this assay the target is T1, Tyrosine-protein phosphatase non-receptor type 1 (Homo sapiens, UniProt P18031).
T1 sequence (P18031 whole entry): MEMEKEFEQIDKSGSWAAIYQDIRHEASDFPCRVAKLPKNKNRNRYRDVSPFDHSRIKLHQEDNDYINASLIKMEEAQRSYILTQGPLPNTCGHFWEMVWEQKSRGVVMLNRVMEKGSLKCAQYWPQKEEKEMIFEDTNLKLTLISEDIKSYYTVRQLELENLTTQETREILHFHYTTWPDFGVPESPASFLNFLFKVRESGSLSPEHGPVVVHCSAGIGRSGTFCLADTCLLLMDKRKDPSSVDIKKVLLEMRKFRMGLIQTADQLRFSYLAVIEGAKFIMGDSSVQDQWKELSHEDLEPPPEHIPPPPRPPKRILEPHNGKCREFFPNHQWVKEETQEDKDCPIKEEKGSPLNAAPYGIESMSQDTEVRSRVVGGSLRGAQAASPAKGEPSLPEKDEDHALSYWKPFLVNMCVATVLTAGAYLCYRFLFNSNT
The assay is described as follows: Inhibition of recombinant human PTP1B assessed as hydrolysis of p-nitrophenyl phosphate after 30 mins.
Turning to `COc1c(/C=C/C(=O)c2ccc(O)cc2)ccc(O)c1CC=C(C)C`, the IC50 – broadly, the point on the concentration scale where inhibition reaches its midpoint – amounted to 30.9 µM.
For `C=CC(C)(C)c1cc(/C=C/C(=O)c2ccc(OC)cc2)c(OC)cc1O`, the IC50 turned out to be 11.7 µM.
In the case of `C=CC(C)(C)c1cc(/C=C/C(=O)c2ccc(OC)cc2)c(OC)cc1OC(C)=O` it was 19.4 µM; in that of `C=CC(C)(C)c1cc(/C=C/C(=O)c2ccc(O)cc2)c(OC)cc1OC(C)=O`, 17.3 µM.
With `C=CC(C)(C)c1cc(/C=C/C(=O)c2ccc(OC(C)=O)cc2)c(OC)cc1OC`, the IC50 was 29.2 µM.
`C=CC(C)(C)c1cc(/C=C/C(=O)c2ccc(O)cc2)c(OC)cc1OC`: the IC50 worked out at 18.3 µM.
As to `C=CC(C)(C)c1cc(/C=C/C(=O)c2ccc(OC(C)=O)cc2)c(OC)cc1O`, the IC50 turned out to be 19.2 µM.
Turning to `C=C(C)C(C)c1cc(/C=C/C(=O)c2ccc(O)cc2)c(OC)cc1O` (centres undefined), the IC50 worked out at 20.7 µM.
Under `C=CC(C)(C)c1cc(/C=C/C(=O)c2ccc(OC)cc2)c(OC)cc1OC` stands 19.8 µM; under `C=CC(C)(C)c1cc(/C=C/C(=O)c2ccc(OC(C)=O)cc2)c(OC)cc1OC(C)=O`, above 50 µM.
Under `COc1cc(O)ccc1/C=C/C(=O)c1ccc(O)cc1` [ECHINATIN] stands above 50 µM; under `O=C(/C=C/c1ccc(O)cc1)c1ccc(O)cc1O` [ISOLIQUIRITIGENIN], above 50 µM; under `C=CC(C)(C)c1cc(/C=C/C(=O)c2ccc(O)cc2)c(OC)cc1O` [LICOAGROCHACONE A], 19.1 µM.
In the case of `O=C1C[C@@H](c2ccc(O)cc2)Oc2cc(O)ccc21` [LIQUIRTIGENIN], the IC50 was above 50 µM.
